Calls of active or inactive are those of the source. No cut-off for these calls is given here.
How the values were obtained:
[1] = molecular target: Mitogen-activated protein kinase 10 (Homo sapiens, UniProt P53779); assay: Inhibition of JNK3alpha1 (unknown origin) using biotinylated FL-ATF-2 as substrate measured after 22 mins by homogeneous time-resolved fluorescence analysis
[2] = molecular target: Mitogen-activated protein kinase 9 (Homo sapiens, UniProt P45984); assay: Inhibition of JNK2 (unknown origin) using biotinylated FL-ATF-2 as substrate measured after 22 mins by homogeneous time-resolved fluorescence analysis
Mitogen-activated protein kinase 9, sequence (P45984 whole entry): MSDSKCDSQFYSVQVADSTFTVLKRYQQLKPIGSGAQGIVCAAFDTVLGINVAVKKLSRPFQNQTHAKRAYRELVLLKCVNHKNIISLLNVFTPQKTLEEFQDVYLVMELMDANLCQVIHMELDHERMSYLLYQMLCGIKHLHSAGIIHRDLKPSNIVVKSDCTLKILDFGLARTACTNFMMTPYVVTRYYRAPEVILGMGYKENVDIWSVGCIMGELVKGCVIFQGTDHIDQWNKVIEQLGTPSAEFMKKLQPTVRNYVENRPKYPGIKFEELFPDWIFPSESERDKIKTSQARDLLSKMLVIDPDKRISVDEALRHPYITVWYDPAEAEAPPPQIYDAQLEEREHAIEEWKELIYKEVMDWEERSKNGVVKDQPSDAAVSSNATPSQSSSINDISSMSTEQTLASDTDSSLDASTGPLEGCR

[3] = molecular target: Mitogen-activated protein kinase 14 (Homo sapiens, UniProt Q16539); assay: Inhibition of p38 alpha (unknown origin) using biotinylated FL-ATF-2 as substrate measured after 22 mins by homogeneous time-resolved fluorescence analysis
Mitogen-activated protein kinase 14, sequence (Q16539 whole entry): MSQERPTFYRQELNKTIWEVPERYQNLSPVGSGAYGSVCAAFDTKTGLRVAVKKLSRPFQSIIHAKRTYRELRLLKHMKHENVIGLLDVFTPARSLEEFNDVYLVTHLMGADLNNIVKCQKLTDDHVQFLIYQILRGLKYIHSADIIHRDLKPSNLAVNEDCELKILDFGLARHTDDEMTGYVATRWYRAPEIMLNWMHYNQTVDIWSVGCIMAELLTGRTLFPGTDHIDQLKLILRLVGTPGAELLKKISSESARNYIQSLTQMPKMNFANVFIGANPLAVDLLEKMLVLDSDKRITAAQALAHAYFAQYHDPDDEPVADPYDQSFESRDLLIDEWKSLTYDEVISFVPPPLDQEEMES

[4] = Selectivity index, ratio of IC50 for JNK1 (unknown origin) to IC50 for JNK3 (unknown origin)
[5] = Selectivity index, ratio of IC50 for JNK2 (unknown origin) to IC50 for JNK3 (unknown origin)
[6] = Selectivity index, ratio of IC50 for p38 alpha (unknown origin) to IC50 for JNK3 (unknown origin)
[7] = molecular target: Mitogen-activated protein kinase 8 (Homo sapiens, UniProt P45983); assay: Inhibition of JNK1 (unknown origin) using biotinylated FL-ATF-2 as substrate measured after 22 mins by homogeneous time-resolved fluorescence analysis
Mitogen-activated protein kinase 8, sequence (P45983 whole entry): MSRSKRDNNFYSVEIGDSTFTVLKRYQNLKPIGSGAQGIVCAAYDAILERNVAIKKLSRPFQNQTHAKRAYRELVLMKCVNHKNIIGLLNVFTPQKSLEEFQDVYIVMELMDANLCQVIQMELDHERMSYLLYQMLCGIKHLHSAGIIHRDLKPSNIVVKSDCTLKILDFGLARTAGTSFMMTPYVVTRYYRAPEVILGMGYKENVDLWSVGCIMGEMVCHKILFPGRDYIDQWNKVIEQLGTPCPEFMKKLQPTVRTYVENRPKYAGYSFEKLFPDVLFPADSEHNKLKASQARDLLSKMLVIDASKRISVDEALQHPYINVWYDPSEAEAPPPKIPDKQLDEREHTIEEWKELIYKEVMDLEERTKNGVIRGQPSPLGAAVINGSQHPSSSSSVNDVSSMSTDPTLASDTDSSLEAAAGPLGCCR

[8] = Stability in mouse liver microsome assessed as half life; type: ADME; settings: liver microsomes
[9] = Stability in human liver microsome assessed as half life; type: ADME; settings: liver microsomes
SH-SY5Y = assay: Cytotoxicity against human SH-SY5Y cells assessed as reduction in cell viability at 10 uM measured after 48 hrs by MTT assay; type: cell-based
CYP2C9 = CYP2C9 (Homo sapiens, UniProt P11712); assay: Inhibition of CYP2C9 (unknown origin) assessed as tolbutamide hydroxylation to hydrocytolbutamide at 10 uM by cocktail inhibition assay relative to control; settings: probe tolbutamide (hydroxylation to hydroxytolbutamide)
CYP2C9, sequence (P11712 whole entry): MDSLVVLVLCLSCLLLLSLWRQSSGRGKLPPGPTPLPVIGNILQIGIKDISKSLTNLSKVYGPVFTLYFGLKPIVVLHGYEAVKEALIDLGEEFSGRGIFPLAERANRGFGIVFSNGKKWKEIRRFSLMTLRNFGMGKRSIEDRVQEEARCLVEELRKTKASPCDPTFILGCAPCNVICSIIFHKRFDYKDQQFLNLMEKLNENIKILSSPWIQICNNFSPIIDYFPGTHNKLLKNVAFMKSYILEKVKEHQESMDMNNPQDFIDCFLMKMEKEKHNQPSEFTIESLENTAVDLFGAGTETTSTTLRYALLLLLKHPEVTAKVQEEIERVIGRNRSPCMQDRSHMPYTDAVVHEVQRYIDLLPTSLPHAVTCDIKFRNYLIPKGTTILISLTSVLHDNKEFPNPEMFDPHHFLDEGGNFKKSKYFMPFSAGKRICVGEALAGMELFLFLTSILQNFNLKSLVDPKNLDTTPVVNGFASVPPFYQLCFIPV

CYP2D6 = CYP2D6 (Homo sapiens, UniProt P10635); assay: Inhibition of CYP2D6 (unknown origin) assessed as bufuralol hydroxylation to 4'-hydroxy bufuralol at 10 uM by cocktail inhibition assay relative to control; settings: probe bufuralol (hydroxylation to 4'-hydroxy bufuralol)
CYP2D6, sequence (P10635 whole entry): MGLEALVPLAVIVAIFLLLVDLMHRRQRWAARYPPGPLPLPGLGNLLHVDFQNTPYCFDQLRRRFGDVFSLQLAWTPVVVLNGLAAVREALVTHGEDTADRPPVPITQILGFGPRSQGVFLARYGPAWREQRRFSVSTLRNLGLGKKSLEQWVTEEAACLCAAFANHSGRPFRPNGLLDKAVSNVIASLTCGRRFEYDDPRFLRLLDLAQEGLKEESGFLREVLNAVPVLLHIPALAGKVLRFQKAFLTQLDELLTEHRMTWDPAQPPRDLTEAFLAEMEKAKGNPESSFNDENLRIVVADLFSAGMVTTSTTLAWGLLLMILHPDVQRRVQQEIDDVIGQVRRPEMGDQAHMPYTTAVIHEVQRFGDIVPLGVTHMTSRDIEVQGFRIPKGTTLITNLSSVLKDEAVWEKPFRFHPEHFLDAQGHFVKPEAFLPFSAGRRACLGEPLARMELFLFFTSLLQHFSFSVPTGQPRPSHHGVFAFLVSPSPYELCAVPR

CYP1A2 = molecular target: T1, CYP1A2 (Homo sapiens, UniProt P05177); assay: Inhibition of CYP1A2 (unknown origin) assessed as phenaceten demethylation to acetaminophen at 10 uM by cocktail inhibition assay relative to control; settings: probe phenacetin (demethylation to acetaminophen)
T1 sequence (P05177 whole entry): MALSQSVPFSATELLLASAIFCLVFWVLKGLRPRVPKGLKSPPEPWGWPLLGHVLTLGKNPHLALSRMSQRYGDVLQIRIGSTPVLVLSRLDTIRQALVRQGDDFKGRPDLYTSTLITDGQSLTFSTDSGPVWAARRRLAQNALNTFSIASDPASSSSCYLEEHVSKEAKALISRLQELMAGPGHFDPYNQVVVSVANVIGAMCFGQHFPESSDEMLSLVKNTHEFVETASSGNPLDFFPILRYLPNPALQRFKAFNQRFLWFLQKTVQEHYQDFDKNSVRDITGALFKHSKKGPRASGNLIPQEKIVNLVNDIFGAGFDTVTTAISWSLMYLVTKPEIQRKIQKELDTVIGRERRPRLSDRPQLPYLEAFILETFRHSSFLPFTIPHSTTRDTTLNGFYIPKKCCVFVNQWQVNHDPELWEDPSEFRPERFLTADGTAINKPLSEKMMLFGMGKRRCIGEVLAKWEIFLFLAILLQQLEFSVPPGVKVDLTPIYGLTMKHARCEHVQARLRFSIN

[10] = molecular target: Mitogen-activated protein kinase 10 (Rattus norvegicus) (UniProt P49187); assay: Inhibition of JNK3 in rat primary neuron assessed as reduction in phosphorylation of APP at T668 residue at < 1 nM incubated for 30 mins by Western blot analysis; settings: dose nM <1, time 30.0 min
Mitogen-activated protein kinase 10 (Rattus norvegicus), sequence (P49187 whole entry): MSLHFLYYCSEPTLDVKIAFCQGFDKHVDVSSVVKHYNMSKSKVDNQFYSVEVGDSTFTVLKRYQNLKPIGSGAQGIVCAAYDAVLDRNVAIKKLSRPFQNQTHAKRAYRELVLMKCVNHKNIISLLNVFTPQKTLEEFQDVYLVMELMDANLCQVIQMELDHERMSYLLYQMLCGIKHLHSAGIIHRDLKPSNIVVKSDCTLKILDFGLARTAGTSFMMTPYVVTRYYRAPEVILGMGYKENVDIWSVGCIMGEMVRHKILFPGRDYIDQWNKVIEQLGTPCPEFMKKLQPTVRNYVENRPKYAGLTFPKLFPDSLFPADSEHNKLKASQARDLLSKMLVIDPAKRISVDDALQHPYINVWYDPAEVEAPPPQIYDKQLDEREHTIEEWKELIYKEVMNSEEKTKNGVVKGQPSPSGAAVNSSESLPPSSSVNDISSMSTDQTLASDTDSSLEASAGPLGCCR

[11] = molecular target: Voltage-gated inwardly rectifying potassium channel KCNH2 (Homo sapiens, UniProt Q12809); assay: Inhibition of human ERG expressed in CHO cells at -80 mV holding potential by automated Qpatch electrophysiological method
Voltage-gated inwardly rectifying potassium channel KCNH2, sequence (Q12809 whole entry): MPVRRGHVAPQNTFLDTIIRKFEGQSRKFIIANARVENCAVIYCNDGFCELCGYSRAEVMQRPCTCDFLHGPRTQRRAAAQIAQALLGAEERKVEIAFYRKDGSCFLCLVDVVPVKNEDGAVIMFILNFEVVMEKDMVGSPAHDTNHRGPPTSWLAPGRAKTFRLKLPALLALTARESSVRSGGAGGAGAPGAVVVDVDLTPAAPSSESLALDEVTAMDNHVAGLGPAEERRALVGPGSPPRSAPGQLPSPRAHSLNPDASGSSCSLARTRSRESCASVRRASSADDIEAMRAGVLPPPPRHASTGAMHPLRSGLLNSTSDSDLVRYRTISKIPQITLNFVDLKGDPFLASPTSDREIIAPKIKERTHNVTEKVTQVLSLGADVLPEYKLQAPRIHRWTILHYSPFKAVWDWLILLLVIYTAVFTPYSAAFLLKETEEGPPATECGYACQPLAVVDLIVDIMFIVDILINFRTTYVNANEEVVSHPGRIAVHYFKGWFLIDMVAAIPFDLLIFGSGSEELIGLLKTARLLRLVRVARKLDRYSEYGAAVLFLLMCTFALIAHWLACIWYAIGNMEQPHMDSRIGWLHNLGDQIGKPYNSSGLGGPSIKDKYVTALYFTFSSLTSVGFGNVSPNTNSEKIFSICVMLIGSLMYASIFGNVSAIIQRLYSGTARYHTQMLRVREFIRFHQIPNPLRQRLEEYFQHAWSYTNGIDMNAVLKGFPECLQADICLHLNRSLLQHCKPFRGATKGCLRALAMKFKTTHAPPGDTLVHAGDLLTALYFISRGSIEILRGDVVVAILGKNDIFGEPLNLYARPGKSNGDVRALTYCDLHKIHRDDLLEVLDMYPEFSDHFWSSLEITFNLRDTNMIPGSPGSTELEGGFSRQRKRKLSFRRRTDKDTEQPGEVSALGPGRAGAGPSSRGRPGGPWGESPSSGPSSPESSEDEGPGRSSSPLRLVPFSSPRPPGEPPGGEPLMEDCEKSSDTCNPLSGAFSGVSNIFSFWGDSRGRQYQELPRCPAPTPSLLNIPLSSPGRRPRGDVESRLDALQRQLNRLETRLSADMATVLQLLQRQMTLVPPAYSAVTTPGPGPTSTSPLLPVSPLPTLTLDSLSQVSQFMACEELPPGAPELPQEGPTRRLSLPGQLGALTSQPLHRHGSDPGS

CYP3A4 = CYP3A4 (Homo sapiens, UniProt P08684); assay: Inhibition of CYP3A4 (unknown origin) assessed as midazolam hydroxylation to 1'-hydroxy midazolam at 10 uM by cocktail inhibition assay relative to control; settings: probe midazolam (hydroxylation to 1'-hydroxy midazolam)
CYP3A4, sequence (P08684 whole entry): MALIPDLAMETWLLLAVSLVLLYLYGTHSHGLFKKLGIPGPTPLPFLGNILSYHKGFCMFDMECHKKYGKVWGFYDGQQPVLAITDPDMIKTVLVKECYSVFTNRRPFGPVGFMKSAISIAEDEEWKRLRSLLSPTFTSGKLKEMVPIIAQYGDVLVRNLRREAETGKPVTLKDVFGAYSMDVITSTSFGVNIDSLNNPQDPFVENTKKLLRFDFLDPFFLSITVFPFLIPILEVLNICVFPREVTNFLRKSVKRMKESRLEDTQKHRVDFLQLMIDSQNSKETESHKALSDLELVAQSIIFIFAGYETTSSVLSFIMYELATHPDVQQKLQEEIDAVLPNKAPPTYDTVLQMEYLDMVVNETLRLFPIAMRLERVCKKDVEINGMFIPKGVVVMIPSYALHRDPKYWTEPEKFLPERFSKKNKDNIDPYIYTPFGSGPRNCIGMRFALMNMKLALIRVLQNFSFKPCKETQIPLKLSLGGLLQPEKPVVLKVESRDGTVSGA

Cytochrome P450 2C9 = Cytochrome P450 2C9 (Homo sapiens, UniProt P11712); assay: Inhibition of CYP2C9 (unknown origin) by titration method
Cytochrome P450 2C9, sequence (P11712 whole entry): as the sequence (P11712 whole entry) above

Mitogen-activated protein kinase 10, sequence (P53779 whole entry): as the sequence (P49187 whole entry) above, with H27Q, S32Y, V33I, V34A counted along it

| IC50 [1] [nM] | IC50 [3] [nM] | Ratio IC50 [4] | Ratio IC50 [6] | IC50 [7] [nM] | SMILES | other results |
| --- | --- | --- | --- | --- | --- | --- |
| 2 | 57 | 130 | 28 | 260 | CNC(=O)c1cc(-n2ncc3cc(Nc4c(F)cccc4Cl)ncc32)cs1 | IC50 [2]: 74 nM; Ratio IC50 [5]: 37 |
| – | – | – | – | – | CNC(=O)c1cc(-n2ncc3cc(Oc4ccccc4Cl)ccc32)cs1 | half-life [8]: 15 min; IC50 [2]: 1020 nM; half-life [9]: 72 min; Cell viability (SH-SY5Y): 94% |
| 2 | 124 | 200 | 62 | 400 | CC(C)NC(=O)c1cc(-n2ncc3cc(Nc4ccccc4Cl)c(F)cc32)cs1 | – |
| 4 | 65 | 132 | 16 | 627 | CC(=O)N1CC[C@H](NC(=O)c2cc(-n3ncc4cc(Nc5ccccc5Cl)c(F)cc43)cs2)C1 | – |
| 3 | 41 | 56 | 14 | 169 | COCCNC(=O)c1cc(-n2ncc3cc(Nc4ccccc4Cl)c(F)cc32)cs1 | – |
| 100 | – | – | – | – | O=C(NC1COC1)c1cc(-n2ncc3nc(Nc4ccccc4Cl)ccc32)cs1 | – |
| 5 | 100 | 124 | 20 | 619 | CNC(=O)c1cc(-n2ncc3cc(Nc4ccccc4Cl)c(F)cc32)cs1 | inhibition at 10 µM (CYP2C9): 39%; half-life [8]: 42 min; IC50 [2]: 93 nM; half-life [9]: 37 min; inhibition at 10 µM (CYP2D6): -4%; inhibition at 10 µM (CYP1A2): 21%; Ratio IC50 [5]: 18; inhibition [10]: Active; IC50 [11]: > 30000 nM; Cell viability (SH-SY5Y): 83%; inhibition at 10 µM (CYP3A4): -13% |
| 2 | 47 | 60 | 24 | 120 | O=C(NC1CCOCC1)c1cc(-n2ncc3cc(Nc4ccccc4Cl)c(F)cc32)cs1 | – |
| 31 | 325 | 27 | 10 | 825 | CC(C)N1CC[C@@H](NC(=O)c2cc(-n3ncc4cc(Nc5ccccc5Cl)ccc43)cs2)C1 | – |
| 6 | 260 | 157 | 43 | 940 | O=C(NC1COC1)c1cc(-n2ncc3cc(Nc4ccccc4Cl)cnc32)cs1 | inhibition at 10 µM (CYP2C9): 76%; IC50 (Cytochrome P450 2C9): 4000 nM; half-life [8]: 9 min; IC50 [2]: 256 nM; half-life [9]: 21 min; inhibition at 10 µM (CYP2D6): 15%; inhibition at 10 µM (CYP1A2): 19%; Ratio IC50 [5]: 43; Cell viability (SH-SY5Y): 103%; inhibition at 10 µM (CYP3A4): 14% |
| – | – | – | – | – | CN1CC[C@H](NC(=O)c2cc(-n3ncc4cc(Nc5ccccc5Cl)ccc43)cs2)C1 | Ratio IC50 ([4]; tested as the 2H-labelled form): 263; Ratio IC50 ([6]; tested as the 2H-labelled form): 226 |
| 79 | 490 | 76 | 6 | 6000 | Cc1nc2c(cnn2-c2csc(C(=O)NC3COC3)c2)cc1Nc1ccc(F)cc1Cl | – |
| 12 | 380 | 73 | 31 | 872 | CNC(=O)c1cc(-n2ncc3cc(Nc4c(F)cccc4Cl)c(C)nc32)cs1 | inhibition at 10 µM (CYP2C9): 61%; half-life [8]: 17 min; IC50 [2]: 140 nM; half-life [9]: 26 min; inhibition at 10 µM (CYP2D6): 19%; inhibition at 10 µM (CYP1A2): 43%; Ratio IC50 [5]: 11; IC50 [11]: > 30000 nM; Cell viability (SH-SY5Y): 109%; inhibition at 10 µM (CYP3A4): -2% |
| 24 | 481 | 197 | 20 | 4730 | CNC(=O)c1cc(-n2ncc3cc(Nc4ccccc4Cl)cnc32)cs1 | inhibition at 10 µM (CYP2C9): 66%; IC50 (Cytochrome P450 2C9): 4000 nM; half-life [8]: 14 min; IC50 [2]: 414 nM; half-life [9]: 15 min; inhibition at 10 µM (CYP2D6): 30%; inhibition at 10 µM (CYP1A2): 30%; Ratio IC50 [5]: 17; IC50 [11]: > 100000 nM; Cell viability (SH-SY5Y): 119%; inhibition at 10 µM (CYP3A4): 57% |
| < 1 | > 20000 | – | – | – | O=C(Nc1cnn(-c2cccc(C(=O)Nc3cnn(C4CCNC4)c3)c2)c1)Nc1ccccc1Cl (stereo unspecified) | – |
| > 10000 | > 10000 | – | – | > 10000 | CNC(=O)c1cc(-n2ncc3cc(Nc4cccc(OC)c4Cl)c(C)nc32)cs1 | – |

| IC50 [1] [nM] | IC50 [3] [nM] | Ratio IC50 [4] | Ratio IC50 [6] | IC50 [7] [nM] | SMILES | other results |
| --- | --- | --- | --- | --- | --- | --- |
| 2 | 24 | 89 | 12 | 178 | O=C(N[C@H]1CCOC1)c1cc(-n2ncc3cc(Nc4ccccc4Cl)c(F)cc32)cs1 | – |
| 2 | 24 | 129 | 12 | 258 | CNC(=O)c1cc(-n2ncc3cc(Nc4c(F)cccc4Cl)c(F)cc32)cs1 | IC50 [2]: 29 nM; Ratio IC50 [5]: 15 |
| 4 | 46 | 83 | 12 | 333 | O=C(NCC(F)F)c1cc(-n2ncc3cc(Nc4ccccc4Cl)c(F)cc32)cs1 | – |
| 1 | 14 | 150 | 14 | 150 | O=C(NC1CC1)c1cc(-n2ncc3cc(Nc4ccccc4Cl)c(F)cc32)cs1 | – |
| 5 | 86 | 139 | 17 | 690 | O=C(NC1COC1)c1cc(-n2ncc3cc(Nc4ccccc4Cl)ncc32)cs1 | – |
| 169 | 1420 | > 59 | 8 | > 10000 | Cc1nc2c(cnn2-c2csc(C(=O)NC3COC3)c2)cc1Nc1cccc(F)c1Cl | – |
| – | – | – | – | – | CN1CC[C@H](NC(=O)c2cc(-n3ncc4cc(Nc5ccccc5Cl)c(F)cc43)cs2)C1 | Ratio IC50 ([4]; tested as the 2H-labelled form): 57; Ratio IC50 ([6]; tested as the 2H-labelled form): 60 |
| 14 | 400 | 75 | 29 | 1050 | O=C(NC1COC1)c1cc(-n2ncc3cc(Nc4ccccc4Cl)c(F)cc32)cs1 | inhibition at 10 µM (CYP2C9): 41%; half-life [8]: 20 min; IC50 [2]: 1330 nM; half-life [9]: 92 min; inhibition at 10 µM (CYP2D6): -16%; inhibition at 10 µM (CYP1A2): 4%; Ratio IC50 [5]: 95; Cell viability (SH-SY5Y): 98%; inhibition at 10 µM (CYP3A4): -56% |
| 1070 | 2890 | – | – | > 10000 | Cc1nc2c(cnn2-c2csc(C(=O)NC3COC3)c2)cc1Nc1cc(F)ccc1Cl | – |
| 5 | 65 | 248 | 13 | 1240 | CNC(=O)c1cc(-n2ncc3cc(Nc4c(F)cccc4OC)c(F)cc32)cs1 | – |
| 2 | 106 | – | – | 213 | CNC(=O)c1cc(-n2ncc3cc(Nc4c(F)cccc4Cl)cnc32)cs1 | half-life [8]: 22 min; IC50 [2]: 52 nM; half-life [9]: 30 min; Cell viability (SH-SY5Y): 104% |
| 20 | 160 | 55 | 8 | 1100 | CNC(=O)c1cc(-n2ncc3cc(Nc4ccccc4Cl)c(OC)cc32)cs1 | – |
| 1000 | – | – | – | – | CNC(=O)c1cc(-n2ncc3nc(Nc4ccccc4Cl)ncc32)cs1 | – |
| – | > 20000 | – | – | – | O=C(Nc1cnn(-c2csc(C(=O)NC3COC3)c2)c1)Nc1ccccc1Cl | IC50 [11]: > 30000 nM; Cell viability (SH-SY5Y): 104% |
| 1 | 226 | – | – | 263 | [2H]C([2H])([2H])N1CC[C@H](NC(=O)c2cc(-n3ncc4cc(Nc5ccccc5Cl)ccc43)cs2)C1 | IC50 [11]: < 1000 nM |
| 5 | 300 | – | – | 285 | [2H]C([2H])([2H])N1CC[C@H](NC(=O)c2cc(-n3ncc4cc(Nc5ccccc5Cl)c(F)cc43)cs2)C1 | IC50 [11]: < 1000 nM |

From ChEMBL document CHEMBL4837263, “N-Aromatic-Substituted Indazole Derivatives as Brain-Penetrant and Orally Bioavailable JNK3 Inhibitors” (ACS Med Chem Lett, 2021)
